Assay results published in patent US8101768B2, “Cyclic amine compound and pest control agent” (Nippon Soda Co., Ltd., priority 2004, dated 2012).

Legend:
[1] = tested on: organophosphorous agent resistant two-spotted spider mites; assay: Effect on Two-spotted Spider Mite (spray on kidney bean leaves); assay type: in vivo; settings: 125 ppm, water dispersible powder of Formulation Example 1 sprayed, 17 female adults, 25° C., 65% humidity, 3 days
Procedure, shortened: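 Kidney bean first leaves bearing 17 adult female organophosphate-resistant mites were sprayed with a water-dispersible powder formulation at 125 ppm. Held 3 days at 25 °C, 65% humidity, then adult mortality scored; run in duplicate.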

[2] = tested on: acaricide resistant citrus red mites; assay: Effect on Citrus Red Mite (spray on mandarin orange leaves); assay type: in vivo; settings: 31 ppm, emulsifiable concentrate of Formulation Example 2 sprayed, 10 female adults, 25° C., 65% humidity
Procedure, shortened: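 Acaricide-resistant female adult citrus red mites (10 per leaf) on mandarin orange leaves were sprayed with emulsifiable concentrate diluted to 31 ppm compound. Leaves were held 3 days at 25° C, 65% humidity, then adults were removed. Eggs laid during those 3 days were checked on day 11 for development to adults.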

army worms = assay: Effect on Army Worm (artificial feed test); assay type: in vivo; settings: 10 μg of compound on 0.2 ml artificial feed, second instar, 25° C., 5 days
Protocol: Test feeds were prepared by filling plastic test tubes (capacity of 1.4 ml) with 0.2 ml of a commercial artificial feed (Insecta LFS, manufactured by Nosan Corporation). Each of 1% chemical compound solutions was prepared by using DMSO (containing 0.5% tween 20), which was then dropped into the surface of the feed in amount of 10 μg of the respective chemical compounds. 2 army worms, each of which was in the second instar, were inoculated into each of the test tubes, which were then sealed by their plastic caps. After they were left at 25° C. for 5 days, the rate of killed army worms and their feed consumptions were investigated. The test was repeated twice. […] 1-8, 1-9, 1-13, 1-15, 1-17, 1-22, 1-23, 1-27, 1-39, 1-45, 1-46, 1-59, 1-69, 1-72, 1-74, 1-75, 1-79, 1-80, 1-83, 1-95, 1-97, 1-981-100, 1-105, 1-108, 1-114, 1-133, 1-140, 1-147, 1-153, 1-165, 1-166, 1-181, 1-182, 1-183, 1-184, 1-187, 1-189, 1-190,

Row | SMILES | rate of killed adults [1] [%] | killed ... of the adults (eggs laid for 3 days investigated whether they could grow to adults on the eleventh day) [2] [%] | killed 100% of the army worms, or inhibited their feed consumptions, in comparison with a solvent control area, to 10% or less (effective) (army worms) | melting point [°C]
1 | FC(F)(F)c1ccc(N2CCC(Oc3ccc(C(F)(F)F)cc3C(F)(F)F)CC2)nc1 [1-80] | 100 | 100 | effective | –
2 | FC(F)(F)c1ccc(N2CCC(Oc3ccc(C(F)(F)F)cc3Br)CC2)nc1 [1-22] | 100 | 100 | effective | –
3 | COCOCc1cc(C(F)(F)F)ccc1OC1CCN(c2ccc(C(F)(F)F)cn2)CC1 [1-69] | 100 | 100 | effective | –
4 | CC(=O)Oc1cc(C(F)(F)F)ccc1OC1CCN(c2ccc(C(F)(F)F)cn2)CC1 [1-167, 4-[2-acetoxy-4-(trifluoromethyl)phenoxy]-1-[5-(trifluoromethyl)-2-pyridyl]piperidine] | – | – | – | 85 to 95
5 | O=S(=O)(Oc1ccc(OC2CCN(c3ccc(C(F)(F)F)cn3)CC2)cc1)C(F)(F)F [1-153] | 100 | 100 | effective | –
6 | FC(F)(F)c1ccc(N2CCC(Oc3ccc(C(F)(F)F)cc3C3OCCO3)CC2)nc1 [1-181] | 100 | 100 | effective | –
7 | FC(F)(F)c1ccc(N2CCC(Oc3ccc(C(F)(F)F)cc3OCC3CC3)CC2)nc1 [1-108] | 100 | 100 | effective | –
8 | FC(F)(F)c1ccc(N2CCC(Oc3ccc(C(F)(F)F)cc3I)CC2)nc1 [1-27] | 100 | 100 | effective | –
9 | COC(C)OCc1cc(C(F)(F)F)ccc1OC1CCN(c2ccc(C(F)(F)F)cn2)CC1 (centres unmarked) [1-72] | 100 | 100 | effective | –
10 | COCOc1cc(C(F)(F)F)ccc1OC1CCN(c2ccc(C(F)(F)F)cn2)CC1 [1-105, 4-[2-methoxymethoxy-4-(trifluoromethyl)-phenoxy]-1-[5-(trifluoromethyl)-2-pyridyl]piperidine] | 100 | 100 | effective | –
11 | CCCc1cc(C(F)(F)F)ccc1OC1CCN(c2ccc(C(F)(F)F)cn2)CC1 [1-59] | 100 | 100 | effective | –
12 | FC(F)(F)c1ccc(N2CCC(Oc3ccc(Cl)c(C(F)(F)F)c3)CC2)nc1 [1-15, 4-[4-chloro-3-(trifluoromethyl)phenoxy]-1-[5-(trifluoromethyl)-2-pyridyl]-piperidine] | 100 | 100 | effective | –
13 | CCCOc1cc(C(F)(F)F)ccc1OC1CCN(c2ccc(C(F)(F)F)cn2)CC1CC (centres unmarked) [1-187] | 100 | 100 | effective | –
14 | COC(C)OCc1cc(C(F)(F)F)ccc1OC1CCN(c2ccc(C(F)(F)F)cn2)CC1C (centres unmarked) [1-189] | 100 | 100 | effective | –
15 | Fc1ccc(OC2CCN(c3ccc(C(F)(F)F)cn3)CC2)cc1C(F)(F)F [1-9] | 100 | – | effective | –
16 | FC(F)(F)Sc1ccc(OC2CCN(c3ccc(C(F)(F)F)cn3)CC2)cc1 [1-147] | 100 | – | effective | –
17 | CCCOCc1cc(C(F)(F)F)ccc1OC1CCN(c2ccc(C(F)(F)F)cn2)CC1 [1-182] | 100 | – | effective | –
18 | FC(F)(F)c1ccc(N2CCC(Oc3ccc(C(F)(F)F)cc3Cl)CC2)nc1 [1-13] | 100 | 100 | effective | –
19 | CC(C)(C)COc1cc(C(F)(F)F)ccc1OC1CCN(c2ccc(C(F)(F)F)cn2)CC1 [1-114] | 100 | – | effective | –
20 | Cc1cc(C(F)(F)F)ccc1OC1CCN(c2ccc(C(F)(F)F)cn2)CC1 [1-45] | 100 | 100 | effective | –
21 | CCCOc1cc(C(F)(F)F)ccc1O[C@H]1CCN(c2ccc(C(F)(F)F)cn2)C[C@H]1C (relative stereo) [1-97, cis-3-methyl-4-[2-propoxy-4-(triphloromethyl)phenoxy]-1-[5-(trifluoromethyl)-2-pyridyl]piperidine] | 100 | 100 | effective | –
22 | FC(F)(F)c1ccc(OC2CCN(c3ccc(C(F)(F)F)cn3)CC2)cc1 [1-75] | 100 | 100 | effective | –
23 | C=CCc1cc(C(F)(F)F)ccc1OC1CCN(c2ccc(C(F)(F)F)cn2)CC1 [1-74] | 100 | – | effective | –
24 | Cc1noc(-c2cc(C(F)(F)F)ccc2OC2CCN(c3ccc(C(F)(F)F)cn3)CC2)n1 [1-190] | 100 | 100 | effective | –
25 | FC(F)(F)Oc1ccc(OC2CCN(c3ccc(C(F)(F)F)cn3)CC2)cc1 [1-133] | 100 | 100 | effective | –
26 | COCOCc1cc(C(F)(F)F)ccc1OC1CCN(c2ccc(C(F)(F)F)cn2)CC1C (mixture of isomers) [1-183] | 100 | 100 | effective | –
